Test results as given in article PMC8584989 (International Journal of Molecular Sciences, 2021).
Read-outs that look alike come from different tables or passages of the source.

Experiments:
[1] = biological target: ABCB1 (Homo sapiens, UniProt P08183); assay: Inhibitory accumulation assay in MDCKII-ABCB1 cells; assay type: cell-based
Procedure: Accumulation assays were performed as described previously. […] The daunorubicin and mitoxantrone accumulation assays were performed in above mentioned cell lines and were also adopted to primary NSCLC cultures. […] Cells were incubated up to 70-80% confluence for approximately 24 h. […] The cells there trypsinized on ice, resuspended with 2% FBS in cold PBS solution and then fluorescence was detected using flow cytometer (BD FACSCanto II, Allschwil, Switzerland). […] For data presentation, the ratios of relative fluorescence units (RFUs) from treated samples to RFUs from vehicle-treated (control) cells were computed generating “relative substrate accumulation”.

[2] = biological target: T1, CYP1A2 (Homo sapiens, UniProt P05177); assay: Vivid CYP450 Screening Kit, recombinant CYP1A2; assay type: in vitro ADME
T1 construct: purchased Thermo Fisher Scientific
Procedure: (§1) CYP inhibitory assay was performed using Vivid CYP450 screening kit as described previously. The kits consist of microsomal fraction containing human CYP isoforms, human CYP reductase and in several cases cytochrome b5. Experiments were performed following the manufacturer’s protocol on black 96-well plates using kinetic mode. […] Then, the master mix (CYP isoenzyme with an NADPH regeneration system in buffer) was added in each well and plate was pre-incubated for 10 min. The reaction was started with the mixture of NADP^+ and Vivid substrate and the fluorescence of samples was measured in 1 min interval for 60 min using an Infinite M200 Pro microplate reader (Tecan, Männedorf, Switzerland). Data from linear phase (15 min) were used for data evaluation.

[3] = biological target: T2, CYP3A5 (Homo sapiens, UniProt P20815); assay: Vivid CYP450 Screening Kit, recombinant CYP3A5; assay type: in vitro ADME
T2 construct: purchased Thermo Fisher Scientific
Procedure: as §1

[4] = biological target: T3, CYP2C19 (Homo sapiens, UniProt P33261); assay: Vivid CYP450 Screening Kit, recombinant CYP2C19; assay type: in vitro ADME; conditions: recombinant enzyme; read-out: CYP2C19 inhibition IC50
T3 construct: purchased Thermo Fisher Scientific
Procedure: as §1

[5] = test system: A431-par cells; assay: MTT proliferation / drug combination assay; assay type: cell-based; conditions: 48 h, read-out: A431-par IC50
Procedure: (§2) These colorimetric assays were used in various studies presented in this paper (prior induction studies, MDR reversal experiments and comparative viability assays) and were performed as reported previously. […] In MTT experiments, cells were seeded on a 96-well culture plate at densities (in number of cells/well) of 1.3 × 10^4 for MDCKII-par, MDCKII-ABCB1 and MDCKII-ABCG2; 1.2 × 10^4 for A431-par, A431-ABCB1, A431-ABCG2 and A431-ABCC1; 1.2 × 10^4 for NCI-H1299; 1.0 × 10^4 for A459; 2.0 × 10^4 for Caco-2; 5.0 × 10^4 for LS174T; and 1.0 × 10^4 for primary NSCLC explants. On the other hand, for XTT cells were seeded with densities 2.0 × 10^4 for HL60-par, HL60-ABCB1, HL60-ABCG2 and HL60-ABCC1 cells/well on 96-well plates. […] Following 48 h incubation with drugs, Opti-MEM solutions of MTT or XTT (1 mg/mL) with phenazine methosulfate solution (7.50 μg/mL; only for XTT) was added and the cells were incubated for 1 h with the exception of HL60s that were incubated for 5 h.
Based on the computed CI values, the effects of drug combinations were classified as synergistic (CI < 0.9), additive (0.9 < CI < 1.1) or antagonistic (CI > 1.1).

[6] = test system: A431-ABCC1 cells; assay: MTT proliferation assay (comparative viability); assay type: cell-based; conditions: single drug, 48 h
Procedure: as §2

[7] = test system: patient-derived NSCLC explants; assay: Daunorubicin and mitoxantrone accumulation in primary NSCLC explants; assay type: cell-based, human; conditions: six primary cultures; predominantly those with higher transporters' expression levels
Text: Tumor biopsies were donated by NSCLC patients at the Department of Cardiac Surgery, University Hospital Hradec Králové following written informed consent approved by the University Hospital Ethics Committee (study no. 202002 […]). Subjects' characteristics are shown in Supplementary Materials (Table S1). The NSCLC samples were collected immediately after the lung lobectomy and excision of tumor by the pathologist, which was followed by the isolation of cancer cells using a modified procedure based on previously published protocols. The tumor tissues were minced in small pieces around 2-5 mm in diameter using a scalpel. To liberate the cells from tissues, the minced pieces were transferred into the prewarmed 0.1% collagenase in 1 × MEM and placed in the water bath for 30 min. Following the incubation, BSA in MEM was added and cells were sieved through a 40 μm-sized cell strainer. Then, the solution was centrifuged at 200× g for 5 min. The pellet was resuspended with a BSA solution in MEM. […] The cells there trypsinized on ice, resuspended with 2% FBS in cold PBS solution and then fluorescence was detected using flow cytometer (BD FACSCanto II, Allschwil, Switzerland). […] For data presentation, the ratios of relative fluorescence units (RFUs) from treated samples to RFUs from vehicle-treated (control) cells were computed generating “relative substrate accumulation”.

[8] = recommended dosing of 500 mg daily; read-out: steady state Cmax; cited from earlier work
[9] = test system: KB drug resistant cell lines; conditions: in vitro KB drug resistant cell lines; cited from earlier work
[10] = MTT proliferation / drug combination assay; conditions: human
[11] = XTT proliferation / drug combination assay; conditions: human

Sequence of ABCB1 (P08183 whole entry): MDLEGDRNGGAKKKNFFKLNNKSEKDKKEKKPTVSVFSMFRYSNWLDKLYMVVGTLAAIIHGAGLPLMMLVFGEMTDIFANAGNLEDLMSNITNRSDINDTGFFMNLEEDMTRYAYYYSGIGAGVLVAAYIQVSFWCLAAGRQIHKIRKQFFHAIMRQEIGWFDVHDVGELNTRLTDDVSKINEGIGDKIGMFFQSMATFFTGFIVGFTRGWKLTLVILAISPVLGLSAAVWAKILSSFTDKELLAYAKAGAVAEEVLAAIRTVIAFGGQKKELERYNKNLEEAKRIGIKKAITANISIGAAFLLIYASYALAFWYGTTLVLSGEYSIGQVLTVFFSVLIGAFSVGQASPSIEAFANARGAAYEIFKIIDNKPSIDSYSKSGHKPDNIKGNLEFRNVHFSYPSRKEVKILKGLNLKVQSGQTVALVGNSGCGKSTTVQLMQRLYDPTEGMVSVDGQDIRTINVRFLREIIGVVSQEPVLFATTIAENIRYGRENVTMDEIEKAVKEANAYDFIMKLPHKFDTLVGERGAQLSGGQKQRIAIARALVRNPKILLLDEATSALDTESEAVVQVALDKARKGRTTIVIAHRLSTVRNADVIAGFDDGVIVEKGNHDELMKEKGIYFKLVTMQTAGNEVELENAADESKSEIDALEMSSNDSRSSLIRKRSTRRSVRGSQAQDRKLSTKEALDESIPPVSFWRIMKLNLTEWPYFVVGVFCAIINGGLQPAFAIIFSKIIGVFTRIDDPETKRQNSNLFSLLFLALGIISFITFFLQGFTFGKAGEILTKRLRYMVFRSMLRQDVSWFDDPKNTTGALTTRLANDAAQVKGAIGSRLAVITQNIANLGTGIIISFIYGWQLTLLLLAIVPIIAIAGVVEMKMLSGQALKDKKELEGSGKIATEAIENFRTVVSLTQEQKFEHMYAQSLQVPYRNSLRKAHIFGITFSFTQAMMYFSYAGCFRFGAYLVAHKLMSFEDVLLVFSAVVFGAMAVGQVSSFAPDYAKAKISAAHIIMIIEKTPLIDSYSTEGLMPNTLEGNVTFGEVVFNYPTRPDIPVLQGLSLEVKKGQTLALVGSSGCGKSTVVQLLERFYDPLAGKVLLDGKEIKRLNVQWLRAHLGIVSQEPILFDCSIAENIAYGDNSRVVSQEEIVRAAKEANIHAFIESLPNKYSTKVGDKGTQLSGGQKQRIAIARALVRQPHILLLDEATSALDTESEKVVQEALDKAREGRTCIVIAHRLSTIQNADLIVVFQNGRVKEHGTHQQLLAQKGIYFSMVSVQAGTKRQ
T1 sequence (P05177 2-516 limits assumed): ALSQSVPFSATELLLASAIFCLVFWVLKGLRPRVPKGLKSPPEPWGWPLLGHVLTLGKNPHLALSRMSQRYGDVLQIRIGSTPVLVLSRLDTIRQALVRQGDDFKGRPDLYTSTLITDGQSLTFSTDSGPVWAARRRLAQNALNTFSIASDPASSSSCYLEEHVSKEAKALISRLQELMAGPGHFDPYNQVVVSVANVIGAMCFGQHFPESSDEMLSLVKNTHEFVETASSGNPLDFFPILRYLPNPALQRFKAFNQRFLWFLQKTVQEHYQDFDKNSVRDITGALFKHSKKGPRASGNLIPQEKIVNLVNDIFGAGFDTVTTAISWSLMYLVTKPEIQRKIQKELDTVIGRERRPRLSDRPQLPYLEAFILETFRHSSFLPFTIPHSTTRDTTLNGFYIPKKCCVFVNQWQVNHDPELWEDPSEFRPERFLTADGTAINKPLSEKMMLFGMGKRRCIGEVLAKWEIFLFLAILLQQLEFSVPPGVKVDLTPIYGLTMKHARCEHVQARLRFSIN
T3 sequence (P33261 whole entry): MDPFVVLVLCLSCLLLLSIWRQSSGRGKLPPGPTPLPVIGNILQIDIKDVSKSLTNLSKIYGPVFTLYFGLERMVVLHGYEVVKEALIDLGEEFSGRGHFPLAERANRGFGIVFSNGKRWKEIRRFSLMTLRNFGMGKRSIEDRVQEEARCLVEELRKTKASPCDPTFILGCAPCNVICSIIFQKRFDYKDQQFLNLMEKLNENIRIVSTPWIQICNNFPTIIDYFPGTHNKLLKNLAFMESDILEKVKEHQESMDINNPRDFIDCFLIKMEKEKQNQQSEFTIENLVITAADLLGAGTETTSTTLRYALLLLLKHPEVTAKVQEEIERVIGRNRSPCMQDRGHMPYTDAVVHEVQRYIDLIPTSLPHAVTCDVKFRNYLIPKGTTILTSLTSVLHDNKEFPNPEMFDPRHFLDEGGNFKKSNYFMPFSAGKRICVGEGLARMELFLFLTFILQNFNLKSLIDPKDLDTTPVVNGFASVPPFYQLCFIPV
T2 sequence (P20815 whole entry): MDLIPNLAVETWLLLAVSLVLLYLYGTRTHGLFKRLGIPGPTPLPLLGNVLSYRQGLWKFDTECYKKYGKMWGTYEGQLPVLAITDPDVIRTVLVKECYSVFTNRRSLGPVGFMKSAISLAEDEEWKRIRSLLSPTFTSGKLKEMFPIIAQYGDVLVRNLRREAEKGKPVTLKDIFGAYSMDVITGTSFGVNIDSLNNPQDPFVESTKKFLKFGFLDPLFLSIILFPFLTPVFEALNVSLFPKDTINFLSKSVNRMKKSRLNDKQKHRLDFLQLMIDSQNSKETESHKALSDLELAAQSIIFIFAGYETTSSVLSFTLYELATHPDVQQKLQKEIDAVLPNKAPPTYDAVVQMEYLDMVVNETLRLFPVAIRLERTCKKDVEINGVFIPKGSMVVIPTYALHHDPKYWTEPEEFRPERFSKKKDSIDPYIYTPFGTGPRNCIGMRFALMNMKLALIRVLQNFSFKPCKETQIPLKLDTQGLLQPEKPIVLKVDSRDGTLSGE

CN1CCC(COc2cnc(-c3cccc(Cn4nc(-c5cccc(C#N)c5)ccc4=O)c3)nc2)CC1 [tepotinib, Tepotinib]
IC50 ([1]; 2 µM daunorubicin, 1 h, read-out: IC50, relative daunorubicin accumulation): 1.28 µM
IC50 ([1]; 8 µM hoechst 33342, read-out: IC50, relative Hoechst 33342 accumulation): 3.15 µM
IC50 [2]: > 50 µM
IC50 [3]: 38.8 µM
IC50 [4]: 16.9 µM
IC50 [5]: 15.7 µM
IC50 [6]: 16.2 µM
Effect on accumulation of mitoxantrone and daunorubicin [7]: significantly increased the accumulation of model anticancer drugs in some of the primary samples
Cmax [8]: 2620 nM
Effect on anticancer effect of paclitaxel and vincristine [9]: potentiate the anticancer effect of paclitaxel and vincristine
IC50 at 48 h [10]: 16.4 µM
IC50 at 48 h [11]: 19.4 µM
